Source: the NIST ThermoML archive (doi:10.1016/j.jct.2011.02.008)
± gives the expanded uncertainty stated by the source.

Experiment: xn = mol fraction of the nth substance listed
Details: Liquid, Vibrating tube method

## COC(=O)c1ccccc1 [methyl benzoate] + CCCCCCO
298.15 K, 50000 kPa, x1 = 0.4013
  mass density: 951.3 ± 2.4 kg/m3
298.15 K, 50000 kPa, x1 = 0.5005
  mass density: 977.8 ± 2.4 kg/m3
298.15 K, 50000 kPa, x1 = 0.6009
  mass density: 1004.6 ± 2.4 kg/m3
298.15 K, 50000 kPa, x1 = 0.7
  mass density: 1031 ± 2.4 kg/m3
298.15 K, 50000 kPa, x1 = 0.8008
  mass density: 1057.9 ± 2.4 kg/m3
298.15 K, 50000 kPa, x1 = 0.9009
  mass density: 1084.6 ± 2.4 kg/m3
298.15 K, 55000 kPa, x1 = 0.1004
  mass density: 873.7 ± 2.4 kg/m3
298.15 K, 55000 kPa, x1 = 0.2007
  mass density: 900.2 ± 2.4 kg/m3
298.15 K, 55000 kPa, x1 = 0.3007
  mass density: 927.1 ± 2.4 kg/m3
298.15 K, 55000 kPa, x1 = 0.4013
  mass density: 953.9 ± 2.4 kg/m3
298.15 K, 55000 kPa, x1 = 0.5005
  mass density: 980.4 ± 2.4 kg/m3
298.15 K, 55000 kPa, x1 = 0.6009
  mass density: 1007.2 ± 2.4 kg/m3
298.15 K, 55000 kPa, x1 = 0.7
  mass density: 1033.5 ± 2.4 kg/m3
298.15 K, 55000 kPa, x1 = 0.8008
  mass density: 1060.4 ± 2.4 kg/m3
298.15 K, 55000 kPa, x1 = 0.9009
  mass density: 1087.1 ± 2.4 kg/m3
298.15 K, 60000 kPa, x1 = 0.1004
  mass density: 876 ± 2.4 kg/m3
298.15 K, 60000 kPa, x1 = 0.2007
  mass density: 902.5 ± 2.4 kg/m3
298.15 K, 60000 kPa, x1 = 0.3007
  mass density: 929.4 ± 2.4 kg/m3
298.15 K, 60000 kPa, x1 = 0.4013
  mass density: 956.2 ± 2.4 kg/m3
298.15 K, 60000 kPa, x1 = 0.5005
  mass density: 982.7 ± 2.4 kg/m3
298.15 K, 60000 kPa, x1 = 0.6009
  mass density: 1009.5 ± 2.4 kg/m3
298.15 K, 60000 kPa, x1 = 0.7
  mass density: 1035.9 ± 2.4 kg/m3
298.15 K, 60000 kPa, x1 = 0.8008
  mass density: 1062.7 ± 2.4 kg/m3
298.15 K, 60000 kPa, x1 = 0.9009
  mass density: 1089 ± 2.4 kg/m3
308.15 K, 100 kPa, x1 = 0.1004
  mass density: 834 ± 2.4 kg/m3
308.15 K, 100 kPa, x1 = 0.2007
  mass density: 860.4 ± 2.4 kg/m3
308.15 K, 100 kPa, x1 = 0.3007
  mass density: 886.9 ± 2.4 kg/m3
308.15 K, 100 kPa, x1 = 0.4013
  mass density: 913.6 ± 2.4 kg/m3
308.15 K, 100 kPa, x1 = 0.5005
  mass density: 939.9 ± 2.4 kg/m3
308.15 K, 100 kPa, x1 = 0.6009
  mass density: 966.6 ± 2.4 kg/m3
308.15 K, 100 kPa, x1 = 0.7
  mass density: 993 ± 2.4 kg/m3
308.15 K, 100 kPa, x1 = 0.8008
  mass density: 1019.9 ± 2.4 kg/m3
308.15 K, 100 kPa, x1 = 0.9009
  mass density: 1046.6 ± 2.4 kg/m3
308.15 K, 1000 kPa, x1 = 0.1004
  mass density: 834.6 ± 2.4 kg/m3
308.15 K, 1000 kPa, x1 = 0.2007
  mass density: 861.1 ± 2.4 kg/m3
308.15 K, 1000 kPa, x1 = 0.3007
  mass density: 887.5 ± 2.4 kg/m3
308.15 K, 1000 kPa, x1 = 0.4013
  mass density: 914.2 ± 2.4 kg/m3
308.15 K, 1000 kPa, x1 = 0.5005
  mass density: 940.6 ± 2.4 kg/m3
308.15 K, 1000 kPa, x1 = 0.6009
  mass density: 967.2 ± 2.4 kg/m3
308.15 K, 1000 kPa, x1 = 0.7
  mass density: 993.7 ± 2.4 kg/m3
308.15 K, 1000 kPa, x1 = 0.8008
  mass density: 1020.5 ± 2.4 kg/m3
308.15 K, 1000 kPa, x1 = 0.9009
  mass density: 1047.2 ± 2.4 kg/m3
308.15 K, 5000 kPa, x1 = 0.1004
  mass density: 837.5 ± 2.4 kg/m3
308.15 K, 5000 kPa, x1 = 0.2007
  mass density: 864 ± 2.4 kg/m3
308.15 K, 5000 kPa, x1 = 0.3007
  mass density: 890.4 ± 2.4 kg/m3
308.15 K, 5000 kPa, x1 = 0.4013
  mass density: 917.1 ± 2.4 kg/m3
308.15 K, 5000 kPa, x1 = 0.5005
  mass density: 943.4 ± 2.4 kg/m3
308.15 K, 5000 kPa, x1 = 0.6009
  mass density: 970 ± 2.4 kg/m3
308.15 K, 5000 kPa, x1 = 0.7
  mass density: 996.4 ± 2.4 kg/m3
308.15 K, 5000 kPa, x1 = 0.8008
  mass density: 1023.2 ± 2.4 kg/m3
308.15 K, 5000 kPa, x1 = 0.9009
  mass density: 1049.9 ± 2.4 kg/m3
308.15 K, 10000 kPa, x1 = 0.1004
  mass density: 841 ± 2.4 kg/m3
308.15 K, 10000 kPa, x1 = 0.2007
  mass density: 867.4 ± 2.4 kg/m3
308.15 K, 10000 kPa, x1 = 0.3007
  mass density: 893.8 ± 2.4 kg/m3
308.15 K, 10000 kPa, x1 = 0.4013
  mass density: 920.5 ± 2.4 kg/m3
308.15 K, 10000 kPa, x1 = 0.5005
  mass density: 946.8 ± 2.4 kg/m3
308.15 K, 10000 kPa, x1 = 0.6009
  mass density: 973.4 ± 2.4 kg/m3
308.15 K, 10000 kPa, x1 = 0.7
  mass density: 999.7 ± 2.4 kg/m3
308.15 K, 10000 kPa, x1 = 0.8008
  mass density: 1026.5 ± 2.4 kg/m3
308.15 K, 10000 kPa, x1 = 0.9009
  mass density: 1053.1 ± 2.4 kg/m3
308.15 K, 15000 kPa, x1 = 0.1004
  mass density: 844.3 ± 2.4 kg/m3
308.15 K, 15000 kPa, x1 = 0.2007
  mass density: 870.7 ± 2.4 kg/m3
308.15 K, 15000 kPa, x1 = 0.3007
  mass density: 897.1 ± 2.4 kg/m3
308.15 K, 15000 kPa, x1 = 0.4013
  mass density: 923.7 ± 2.4 kg/m3
308.15 K, 15000 kPa, x1 = 0.5005
  mass density: 950 ± 2.4 kg/m3
308.15 K, 15000 kPa, x1 = 0.6009
  mass density: 976.6 ± 2.4 kg/m3
308.15 K, 15000 kPa, x1 = 0.7
  mass density: 1003 ± 2.4 kg/m3
308.15 K, 15000 kPa, x1 = 0.8008
  mass density: 1029.7 ± 2.4 kg/m3
308.15 K, 15000 kPa, x1 = 0.9009
  mass density: 1056.4 ± 2.4 kg/m3
308.15 K, 20000 kPa, x1 = 0.1004
  mass density: 847.5 ± 2.4 kg/m3
308.15 K, 20000 kPa, x1 = 0.2007
  mass density: 873.9 ± 2.4 kg/m3
